Assays:
[1] = Stability in rat plasma at 1 uM after 60 mins by LC-MS/MS analysis; type: ADME, cell-free; details: read-out: Stability
[2] = Stability in rat liver microsomes at 50 uM after 120 mins in presence of NADPH by LC-MS/MS analysis; type: ADME, microsome; details: read-out: Stability
[3] = molecular target: Cytochrome P450 3A4 (Homo sapiens, UniProt P08684); test: Inhibition of CYP3A4 in human liver microsomes preincubated for 10 mins followed by NADPH addition measured after 10 mins by LC-MS/MS analysis; type: ADME
[4] = Drug uptake in Wistar rat spleen at 6 mg/kg, iv measured after 4 hrs; type: ADME, organism-based; details: in vivo
[5] = Drug uptake in Wistar rat pancreas at 6 mg/kg, iv measured after 1 hr; type: ADME, organism-based; details: in vivo
[6] = molecular target: Cytochrome P450 2C19 (Homo sapiens, UniProt P33261); test: Inhibition of CYP2C19 in human liver microsomes preincubated for 10 mins followed by NADPH addition measured after 10 mins by LC-MS/MS analysis; type: ADME
[7] = Drug excretion in Wistar rat feces at 4 mg/kg, iv measured after 48 hrs; type: ADME, organism-based; details: faeces, read-out: Drug excretion
[8] = Half life in rat liver microsomes at 50 uM in presence of NADPH by LC-MS/MS analysis; type: ADME, microsome
[9] = system: NCI-H460; test: Antitumor activity against human NCI-H460 cells xenografted in nude mouse assessed as inhibition of tumor volume at 6 mg/kg, iv administered once in every 2 days for 14 consecutive days cotreated with 50 mg/kg gefitinib once daily for 14 consecutive days relative to control; type: functional
[10] = Stability in rat plasma at 1 uM after 120 mins by LC-MS/MS analysis; type: ADME, cell-free; details: read-out: Stability
[11] = Drug uptake in Wistar rat lungs at 6 mg/kg, iv measured after 8 hrs; type: ADME, organism-based, Lung; details: in vivo
[12] = Drug uptake in Wistar rat kidney at 6 mg/kg, iv measured after 12 hrs; type: ADME, organism-based; details: in vivo
[13] = system: Rattus norvegicus; test: AUC (0 to infinity) in Wistar rat at 8 mg/kg, iv; type: ADME, organism-based; design: dose 8 mg/kg, route intravenous, time infinity; details: in vivo
[14] = system: NCI-H460; test: Antitumor activity against human NCI-H460 cells xenografted in nude mouse assessed as inhibition of tumor volume at 3 mg/kg, iv administered once in every 2 days for 14 consecutive days relative to control; type: functional; details: 48 h
[15] = Drug uptake in Wistar rat brain at 6 mg/kg, iv measured after 8 hrs; type: ADME, organism-based; details: in vivo
[16] = Drug uptake in Wistar rat pancreas at 6 mg/kg, iv measured after 12 hrs; type: ADME, organism-based; details: in vivo
[17] = Cmax in Wistar rat at 4 mg/kg, iv; type: ADME, organism-based; design: dose 4 mg/kg, route intravenous; details: in vivo
[18] = Drug excretion in Wistar rat urine at 4 mg/kg, iv measured after 36 hrs; type: ADME, organism-based; details: read-out: Drug excretion
[19] = Protein binding in Sprague-Dawley rat plasma at 2 uM after 4 hrs by LC-MS/MS analysis; type: ADME, cell-free; details: read-out: PPB (converted)
[20] = Stability in rat plasma at 1 uM after 5 mins by LC-MS/MS analysis; type: ADME, cell-free; details: read-out: Stability
[21] = Drug uptake in Wistar rat liver at 6 mg/kg, iv measured after 12 hrs; type: ADME, organism-based; details: in vivo
[22] = system: Mus musculus; test: Toxicity in nude mouse xenografted with human NCI-H460 cells assessed as death at 3 to 6 mg/kg, iv administered once in every 2 days for 14 consecutive days cotreated with 25 to 50 mg/kg gefitinib once daily for 14 consecutive days; type: organism-based; details: in vivo, 48 h
[23] = Drug uptake in Wistar rat brain at 6 mg/kg, iv measured after 1 hr; type: ADME, organism-based; details: in vivo
[24] = Drug uptake in Wistar rat liver at 6 mg/kg, iv measured after 0.5 hrs; type: ADME, organism-based; details: in vivo
[25] = system: Mus musculus; test: Toxicity in nude mouse xenografted with human NCI-H460 cells assessed as death at 3 to 9 mg/kg, iv administered once in every 2 days for 14 consecutive days; type: organism-based; details: in vivo, 48 h
[26] = Cmax in Wistar rat at 8 mg/kg, iv; type: ADME, organism-based; design: dose 8 mg/kg, route intravenous; details: in vivo
[27] = Drug uptake in Wistar rat pancreas at 6 mg/kg, iv measured after 4 hrs; type: ADME, organism-based; details: in vivo
[28] = Drug uptake in Wistar rat liver at 6 mg/kg, iv measured after 1 hr; type: ADME, organism-based; details: in vivo
[29] = system: NCI-H460; test: Antitumor activity against human NCI-H460 cells xenografted in nude mouse assessed as inhibition of tumor weight at 3 mg/kg, iv administered once in every 2 days for 14 consecutive days cotreated with 25 mg/kg gefitinib once daily for 14 consecutive days relative to control; type: functional
[30] = Protein binding in human plasma at 2 uM after 4 hrs by LC-MS/MS analysis; type: ADME, cell-free; details: read-out: PPB (converted)
[31] = molecular target: T1, Cytochrome P450 1A2 (Homo sapiens, UniProt P05177); test: Inhibition of CYP1A2 in human liver microsomes preincubated for 10 mins followed by NADPH addition measured after 10 mins by LC-MS/MS analysis; type: ADME
T1 sequence (P05177 whole entry): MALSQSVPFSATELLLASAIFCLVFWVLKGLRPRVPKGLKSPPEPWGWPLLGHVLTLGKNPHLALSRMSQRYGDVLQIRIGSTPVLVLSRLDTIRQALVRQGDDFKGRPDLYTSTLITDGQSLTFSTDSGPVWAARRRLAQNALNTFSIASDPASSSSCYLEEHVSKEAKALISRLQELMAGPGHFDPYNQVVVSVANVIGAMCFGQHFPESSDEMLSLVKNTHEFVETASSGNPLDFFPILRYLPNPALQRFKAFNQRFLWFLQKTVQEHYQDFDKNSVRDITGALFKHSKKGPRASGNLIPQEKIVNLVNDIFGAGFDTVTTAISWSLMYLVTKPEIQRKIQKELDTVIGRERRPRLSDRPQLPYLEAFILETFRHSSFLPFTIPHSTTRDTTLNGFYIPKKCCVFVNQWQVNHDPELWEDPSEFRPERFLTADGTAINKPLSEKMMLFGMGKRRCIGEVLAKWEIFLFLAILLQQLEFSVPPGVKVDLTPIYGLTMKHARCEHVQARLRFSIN

[32] = Drug uptake in Wistar rat lungs at 6 mg/kg, iv measured after 12 hrs; type: ADME, organism-based, Lung; details: in vivo
[33] = Drug uptake in Wistar rat lungs at 6 mg/kg, iv measured after 1 hr; type: ADME, organism-based, Lung; details: in vivo
[34] = Drug uptake in Wistar rat small intestine at 6 mg/kg, iv measured after 1 hr; type: ADME, organism-based; details: in vivo
[35] = Drug uptake in Wistar rat pancreas at 6 mg/kg, iv measured after 8 hrs; type: ADME, organism-based; details: in vivo
[36] = Drug excretion in Wistar rat urine at 4 mg/kg, iv measured after 2 hrs; type: ADME, organism-based; details: read-out: Drug excretion
[37] = Drug excretion in Wistar rat feces at 4 mg/kg, iv measured after 36 hrs; type: ADME, organism-based; details: faeces, read-out: Drug excretion
[38] = system: Mus musculus; test: Toxicity in Balb/c mouse assessed as mortality at 10 to 15 mg/kg, iv administered three times in a day every 2 days for 15 consecutive days; type: organism-based; details: in vivo, 48 h
[39] = Toxicity in Balb/c mouse administered iv three times in a day every 2 days for 15 consecutive days; type: organism-based; details: in vivo
[40] = Stability in rat plasma at 1 uM after 20 mins by LC-MS/MS analysis; type: ADME, cell-free; details: read-out: Stability
[41] = Drug uptake in Wistar rat spleen at 6 mg/kg, iv measured after 0.5 hrs; type: ADME, organism-based; details: in vivo
[42] = Stability in rat liver microsomes at 50 uM after 270 mins in presence of NADPH by LC-MS/MS analysis; type: ADME, microsome; details: 4.5 h

Sequence of Cytochrome P450 3A4 (P08684 whole entry): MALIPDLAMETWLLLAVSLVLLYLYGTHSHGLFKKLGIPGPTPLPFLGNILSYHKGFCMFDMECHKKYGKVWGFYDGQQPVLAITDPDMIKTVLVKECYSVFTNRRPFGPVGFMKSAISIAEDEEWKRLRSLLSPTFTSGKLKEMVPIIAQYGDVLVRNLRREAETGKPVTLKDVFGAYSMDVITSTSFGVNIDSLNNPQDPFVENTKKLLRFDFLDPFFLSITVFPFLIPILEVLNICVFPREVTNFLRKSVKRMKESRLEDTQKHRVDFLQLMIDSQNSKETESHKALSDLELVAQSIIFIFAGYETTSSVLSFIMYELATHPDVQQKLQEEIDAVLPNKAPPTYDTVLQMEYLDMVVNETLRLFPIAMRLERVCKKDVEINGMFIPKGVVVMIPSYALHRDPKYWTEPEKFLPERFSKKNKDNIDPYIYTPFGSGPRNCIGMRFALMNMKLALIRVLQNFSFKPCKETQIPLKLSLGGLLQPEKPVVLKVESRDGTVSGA
Sequence of Cytochrome P450 2C19 (P33261 whole entry): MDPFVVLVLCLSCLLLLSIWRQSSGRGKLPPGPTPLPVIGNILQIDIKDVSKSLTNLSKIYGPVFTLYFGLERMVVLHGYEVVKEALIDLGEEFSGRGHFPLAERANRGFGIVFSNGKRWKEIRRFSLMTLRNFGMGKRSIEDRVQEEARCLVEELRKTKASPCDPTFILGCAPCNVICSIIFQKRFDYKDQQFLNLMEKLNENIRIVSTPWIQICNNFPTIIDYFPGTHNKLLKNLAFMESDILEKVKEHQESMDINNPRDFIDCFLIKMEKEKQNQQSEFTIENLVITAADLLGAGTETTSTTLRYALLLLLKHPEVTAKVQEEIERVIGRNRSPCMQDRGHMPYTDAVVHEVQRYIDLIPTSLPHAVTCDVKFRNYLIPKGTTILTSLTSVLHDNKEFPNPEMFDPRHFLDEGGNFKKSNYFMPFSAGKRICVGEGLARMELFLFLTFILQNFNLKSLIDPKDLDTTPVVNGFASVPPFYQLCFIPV

[2H]/C(c1nc[nH]c1C(C)(C)C)=c1/[nH]c(=O)/c(=C/c2ccccc2)[nH]c1=O
remaining at 1 h, 1 µM [1]: 94.3%
remaining at 2 h, 50 µM [2]: 31.1%
IC50 [3]: > 50 µM
Drug uptake [4]: 1519.6 ng/mL/g
Drug uptake [5]: 4538.9 ng/mL/g
IC50 [6]: 3.81 µM
dose excreted at 48 h [7]: 6.1%
t1/2 [8]: 1.415 h
inhibition (INH) [9]: 67.8%
remaining at 2 h, 1 µM [10]: 101%
Drug uptake [11]: 41048.8 ng/mL/g
Drug uptake [12]: 175.1 ng/mL/g
AUC [13]: 5808.24 ng·h/mL
inhibition in vivo at 3 mg/kg [14]: 46.9%
Drug uptake [15]: 144.8 ng/mL/g
Drug uptake [16]: 68.2 ng/mL/g
Cmax [17]: 4420 ng/mL
dose excreted at 36 h [18]: 0.23%
fraction unbound at 4 h, 2 µM [19]: 0.042
remaining at 5 min, 1 µM [20]: 93.9%
Drug uptake [21]: 431.7 ng/mL/g
Activity [22]: Non-Toxic
Drug uptake [23]: 561 ng/mL/g
Drug uptake [24]: 8281 ng/mL/g
Activity [25]: Non-Toxic
Cmax [26]: 20100 ng/mL
Drug uptake [27]: 1366.3 ng/mL/g
Drug uptake [28]: 8791.2 ng/mL/g
inhibition (INH) [29]: 53.3%
fraction unbound at 4 h, 2 µM [30]: 0.021
IC50 [31]: 1.02 µM
Drug uptake [32]: 2023.8 ng/mL/g
Drug uptake [33]: 158342.2 ng/mL/g
Drug uptake [34]: 1128.6 ng/mL/g
Drug uptake [35]: 399 ng/mL/g
dose excreted at 2 h [36]: 0.05%
dose excreted at 36 h [37]: 5.85%
Activity [38]: Non-Toxic
MTD at 48 h [39]: 15 mg/kg
remaining at 20 min, 1 µM [40]: 95.8%
Drug uptake [41]: 4808.8 ng/mL/g
Stability [42]: 35.33%

Reference: ChEMBL document CHEMBL4229536, “In vitro and in vivo pharmacokinetic and pharmacodynamic study of MBRI-001, a deuterium-substituted plinabulin derivative as a potent anti-cancer agent” (Bioorg Med Chem, 2018)
